Data published in PMC8151276, “An Integrated Approach toward NanoBRET Tracers for Analysis of GPCR Ligand Engagement” (Molecules, 2021).

How the values were obtained:
TACR1 = target: T1, TACR1 (Homo sapiens, UniProt P25103); assay: NanoBRET screen HiBiT-TACR1 in HEK293; assay type: binding
T1 construct: purchased Promega (in-house HiBiT-GPCR construct library, NanoBRET)
Method: (§1) Each tracer candidate was screened across the entire library of HiBiT-GPCR constructs using NanoBRET as the detection modality. As depicted in Figure 4A, the specificity of interactions was evaluated through decrease in BRET due to competitive displacement of a bound tracer by excess parental compound. Each tracer was analyzed for binding to each HiBiT-GPCR fusion in the absence and in the presence of competing parental compound. Briefly, HEK293 cells were transfected with HiBiT-GPCR constructs diluted into promoterless DNA to reduce expression and maximize translocation to the cell surface. Each tracer candidate was then screened at concentrations of 1 μM and 0.1 μM across cells expressing these fusions. Cells were treated for 1.5 h with tracer either alone or in the presence of 20 μM competing parental compound (i.e., control). BRET was measured upon addition of purified LgBiT and subsequent complementation with HiBiT genetically fused to a GPCR. The specificity of interactions was assessed through a decrease in BRET signal due to competitive displacement of the bound tracer. To further gauge the robustness of these interactions, the fold response over the control (i.e., BRETtracer/BRETcontrol) was calculated. We chose a 1.5-fold response, which translates to ≥7-fold signal over noise as the minimal threshold required to score an interaction as positive.
(§2) HiBiT-GPCR DNA constructs were diluted in 10 mM Tris pH 8 to a final concentration of 0.01 μg/μL, arrayed in 96-well plates and stored at −20 °C. For transfection, HEK293 cells were suspended in Opti-MEM (without phenol red) supplemented with 2% fetal bovine serum (Seradigm) and 100 units/mL penicillin–streptomycin (Gibco) at a final concentration of 220,000 cells/mL and dispensed into white 96-well plates at 90 μL/well. Subsequent transfections and screens were carried using an Agilent Bravo Automated Liquid Handling Platform. First, the 96-well HiBiT DNA arrays were diluted 25-fold in Opti-MEM (without serum or phenol red) to a final concentration of 0.0004 μg/μL and 20 μL of the diluted DNAs were transferred into new 96-well plates. Next, promoterless carrier DNA (1 μg/μL) was diluted 25-fold (0.04 μg/μL) and then dispensed into the diluted arrays at 20 μL/well. Following brief mixing, Viafect transfection reagent (Promega) diluted 16-fold into Opti-MEM was dispensed into the plates at 40 μL/well. After mixing by pipetting, plates were incubated for 10 min on the pipetting station deck. The DNA-transfection reagent complexes were then added to plates containing cells. To facilitate the screen, 10 μL of DNA-transfection reagent complexes were added in duplicates to the top 4 and bottom 4 rows, resulting in two identical 48-well arrays per plate. Plates with transfected cells were incubated for 18–20 h at 37 °C/5% CO2. A screen of each tracer across the entire library using two different concentrations requires duplicate plates of transfected cells. Depending on the number of tracers being screened, transfections can be scaled up using the same ratios. The next day, for each tracer, four 20× screening solutions in tracer dilution buffer (Promega) were prepared: two duplicates at final concentration of 20 μM and two duplicates at a final concentration of 2 μM. […] The four resulting solutions were diluted 4-fold in Opti-MEM without serum or phenol red to generate 5× solutions (5 µM and 0.5 µM tracer +/− 100 μM competing compound). To screen the library, a BioTek MultiFlo FX liquid dispenser was used to dispense 22.5 µL of tracer solution to the top 4 rows and 22.5 µL tracer + competing compound solution to the 4 bottom rows. Plates were briefly mixed on an orbital shaker and incubated for 1.5 h at room temperature. […] Plates were briefly mixed on an orbital shaker and incubated for 15 min to allow complementation.

GRM7 = target: T2, GRM7 (Homo sapiens, UniProt Q14831); assay: NanoBRET screen HiBiT-GRM7 in HEK293; assay type: binding
T2 construct: purchased Promega (in-house HiBiT-GPCR construct library, NanoBRET)
Method: as §1, §2

T1 sequence (P25103 whole entry): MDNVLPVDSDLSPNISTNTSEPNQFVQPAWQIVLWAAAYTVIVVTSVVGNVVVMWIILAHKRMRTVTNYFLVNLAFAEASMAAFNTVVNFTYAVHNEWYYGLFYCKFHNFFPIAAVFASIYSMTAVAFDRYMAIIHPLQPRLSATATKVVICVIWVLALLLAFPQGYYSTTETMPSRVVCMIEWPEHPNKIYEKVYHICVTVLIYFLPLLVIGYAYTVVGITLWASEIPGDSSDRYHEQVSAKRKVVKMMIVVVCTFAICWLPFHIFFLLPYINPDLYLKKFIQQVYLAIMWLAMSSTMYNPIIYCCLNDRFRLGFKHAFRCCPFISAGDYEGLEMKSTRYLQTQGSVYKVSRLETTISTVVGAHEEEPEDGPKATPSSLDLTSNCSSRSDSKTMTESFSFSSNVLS
T2 sequence (Q14831 35-915): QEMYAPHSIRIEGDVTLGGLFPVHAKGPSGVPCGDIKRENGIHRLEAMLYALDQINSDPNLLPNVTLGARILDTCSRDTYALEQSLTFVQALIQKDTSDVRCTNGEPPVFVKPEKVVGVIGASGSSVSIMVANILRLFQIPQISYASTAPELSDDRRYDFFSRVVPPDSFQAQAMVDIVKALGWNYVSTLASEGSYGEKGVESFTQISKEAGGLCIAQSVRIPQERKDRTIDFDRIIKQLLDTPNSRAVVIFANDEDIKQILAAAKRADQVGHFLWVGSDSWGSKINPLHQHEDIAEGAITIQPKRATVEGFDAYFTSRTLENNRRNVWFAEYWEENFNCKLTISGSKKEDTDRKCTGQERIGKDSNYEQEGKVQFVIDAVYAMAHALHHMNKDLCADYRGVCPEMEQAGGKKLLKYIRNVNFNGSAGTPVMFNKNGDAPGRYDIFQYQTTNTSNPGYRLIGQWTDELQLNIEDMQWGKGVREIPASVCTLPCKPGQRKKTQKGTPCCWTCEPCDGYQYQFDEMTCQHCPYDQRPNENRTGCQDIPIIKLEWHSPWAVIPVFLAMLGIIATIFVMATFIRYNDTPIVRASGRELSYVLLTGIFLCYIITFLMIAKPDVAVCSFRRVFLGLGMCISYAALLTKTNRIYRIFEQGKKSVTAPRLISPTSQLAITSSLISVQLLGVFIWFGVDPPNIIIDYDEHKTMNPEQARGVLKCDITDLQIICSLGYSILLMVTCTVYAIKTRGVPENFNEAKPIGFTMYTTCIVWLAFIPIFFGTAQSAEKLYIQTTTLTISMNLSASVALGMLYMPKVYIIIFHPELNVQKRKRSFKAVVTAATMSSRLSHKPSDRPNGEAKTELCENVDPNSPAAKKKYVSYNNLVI

Row | Structure (SMILES) | NanoBRET Fold Response (TACR1; TACR1, tracer 0.1μM) | NanoBRET Fold Response (TACR1; TACR1, tracer 1μM) | NanoBRET Fold Response (GRM7; GRM7, tracer 0.1μM) | NanoBRET Fold Response (GRM7; GRM7, tracer 1μM) | also measured
1 | Cc1nc2n(c(=O)c1CCN1CCC(c3noc4cc(F)ccc34)CC1)CCCC2OC(=O)NCCOCCOCCOCCOCCNC(=O)CCc1ccc2n1[B-](F)(F)[N+]1=C(c3ccc[nH]3)C=CC1=C2 (centres unmarked) [Risperidone-2-NB590] | 1.10 | 0.95 | 1.00 | 1.00 | 
2 | CCOC(=O)c1cc(C#N)c(N2CCC(C(=O)NS(=O)(=O)Cc3ccccc3/C=C/C(=O)NCCNC(=O)CCc3ccc4n3[B-](F)(F)[N+]3=C(c5ccc[nH]5)C=CC3=C4)CC2)nc1C [AZD1283-1-NB590] |  |  |  |  | NanoBRET Fold Response (TACR1; TACR1, 0.1μM): 1.06; NanoBRET Fold Response (TACR1; TACR1, 1μM): 1.09; NanoBRET Fold Response (GRM7; GRM7, 0.1μM): 0.98; NanoBRET Fold Response (GRM7; GRM7, 1μM): 1.05
3 | Cc1cc2c(s1)Nc1ccccc1N=C2N1CCN(CCCNC(=O)CCOCCOCCOCCOCCNC(=O)CCc2ccc3n2[B-](F)(F)[N+]2=C(c4ccc[nH]4)C=CC2=C3)CC1 [Olanzapine-a-2-NB590] | 1.04 | 0.92 | 1.00 | 1.02 | 
4 | COc1ccccc1N1CCN(CCCCN2C(=O)c3ccc(CNC(=O)CCOCCNC(=O)c4ccc(CNC(=O)CCc5ccc6n5[B-](F)(F)[N+]5=C(c7ccc[nH]7)C=CC5=C6)cc4)cc3C2=O)CC1 [NAN-190-3-NB590] | 1.13 | 1.11 | 1.01 | 0.95 | 
5 | CC(C)N(CC[C@H](c1ccccc1)c1cc(CCNC(=O)CCOCCOCCOCCOCCNC(=O)CCc2ccc3n2[B-](F)(F)[N+]2=C(c4ccc[nH]4)C=CC2=C3)ccc1O)C(C)C [Tolterodine-2-NB590] | 1.16 | 1.01 | 1.18 | 0.89 | 
6 | CN(C)CCC=C1c2ccccc2CCc2ccc(C(=O)NCCNC(=O)CCOCCOCCOCCOCCNC(=O)CCc3ccc4n3[B-](F)(F)[N+]3=C(c5ccc[nH]5)C=CC3=C4)cc21 [Amitriptyline-b-2-NB590] |  |  | 1.09 | 1.00 | NanoBRET Fold Response (TACR1; tracer at 0.1μM, listed as amitriptyline-b-2-NB590): 1.45; NanoBRET Fold Response (TACR1; tracer at 1μM, listed as amitriptyline-b-2-NB590): 1.07
7 | O=C(CCOCCOCCOCCOCCNC(=O)CCc1ccc2n1[B-](F)(F)[N+]1=C(c3ccc[nH]3)C=CC1=C2)NCCCN1CCN(C2=Nc3ccccc3Oc3ccc(Cl)cc32)CC1 [Loxapine-a-2-NB590] | 1.06 | 1.12 | 1.07 | 1.12 | 
8 | CN(C)CCC=C1c2ccccc2CCc2ccc(C(=O)NCCNC(=O)CCOCCOCCOCCOCCNC(=O)CCc3ccc4n3[B-](F)(F)[N+]3=C(c5ccc[nH]5)C=CC3=C4)cc21 [Amitriptyline-a-2-NB590] |  |  |  |  | NanoBRET Fold Response (TACR1; tracer at 0.1μM): 1.17; NanoBRET Fold Response (TACR1; tracer at 1μM): 1.18
9 | O=C(CCc1ccc2n1[B-](F)(F)[N+]1=C(c3ccc[nH]3)C=CC1=C2)NCCOCCOCCNC(=O)OCCOCCN1CCN(C2=Nc3ccccc3Sc3ccccc32)CC1 [Quetiapine-a-2-NB590] | 0.97 | 0.83 | 1.03 | 1.05 | 
10 | COc1ccccc1N1CCN(CCCCN2C(=O)c3ccc(CNC(=O)CCOCCOCCOCCOCCNC(=O)CCc4ccc5n4[B-](F)(F)[N+]4=C(c6ccc[nH]6)C=CC4=C5)cc3C2=O)CC1 [NAN-190-2-NB590] | 0.98 |  | 1.00 |  | 
11 | CN1CCN(C2=Nc3cc(Cl)ccc3N(CC(=O)NCCOCCOCCOCCOCCNC(=O)CCc3ccc4n3[B-](F)(F)[N+]3=C(c5ccc[nH]5)C=CC3=C4)c3ccccc32)CC1 [Clozapine-c-2-NB590] |  |  |  |  | NanoBRET Fold Response (TACR1; TACR1, 0.1μM tracer): 0.99; NanoBRET Fold Response (TACR1; TACR1, 1μM tracer): 0.96; NanoBRET Fold Response (GRM7; GRM7, 0.1μM tracer): 1.00; NanoBRET Fold Response (GRM7; GRM7, 1μM tracer): 1.03
12 | COc1ccc2[nH]c(-c3ccc(CNC(=O)CCOCCOCCOCCOCCNC(=O)CCc4ccc5n4[B-](F)(F)[N+]4=C(c6ccc[nH]6)C=CC4=C5)cc3)c(CCNC(C)=O)c2n1 [AzomelatoninICO9-2-NB590] |  |  |  |  | NanoBRET Fold Response (TACR1; 0.1μM tracer): 1.08; NanoBRET Fold Response (TACR1; 1μM tracer): 0.85; NanoBRET Fold Response (GRM7; 0.1μM tracer): 1.03; NanoBRET Fold Response (GRM7; 1μM tracer): 1.08
13 | O=C(CCOCCOCCOCCOCCNC(=O)CCc1ccc2n1[B-](F)(F)[N+]1=C(c3ccc[nH]3)C=CC1=C2)NCCCN1CCN(C2=Nc3cc(Cl)ccc3Nc3ccccc32)CC1 [Clozapine-a-2-NB590] |  |  |  |  | NanoBRET Fold Response (TACR1; TACR1, 0.1μM tracer): 1.15; NanoBRET Fold Response (TACR1; TACR1, 1μM tracer): 1.01; NanoBRET Fold Response (GRM7; GRM7, 0.1μM tracer): 0.95; NanoBRET Fold Response (GRM7; GRM7, 1μM tracer): 0.92
14 | CCCn1c(=O)c2[nH]c(-c3ccc(OCC(=O)NCCNC(=O)CCOCCNC(=O)c4ccc(CNC(=O)CCc5ccc6n5[B-](F)(F)[N+]5=C(c7ccc[nH]7)C=CC5=C6)cc4)cc3)nc2n(CCC)c1=O [XAC-3-NB590] |  |  | 1.03 | 1.07 | 
15 | O=C(CCc1ccc2n1[B-](F)(F)[N+]1=C(c3ccc[nH]3)C=CC1=C2)NCc1ccc(C(=O)NCCOCCOCCNCC(O)COc2cccc3ccccc23)cc1 (centres unmarked) [Propranolol-3-NB590] |  |  |  |  | NanoBRET Fold Response (TACR1; TACR1, 0.1μM): 0.99; NanoBRET Fold Response (TACR1; TACR1, 1μM): 1.00; NanoBRET Fold Response (GRM7; GRM7, 0.1μM): 1.00; NanoBRET Fold Response (GRM7; GRM7, 1μM): 0.97
16 | O=C(CCc1ccc2n1[B-](F)(F)[N+]1=C(c3ccc[nH]3)C=CC1=C2)NCc1ccc(C(=O)NCCOCCC(=O)N[C@@H]2CC[C@@]3(O)[C@H]4Cc5ccc(O)c6c5[C@@]3(CCN4CC3CC3)[C@H]2O6)cc1 [Naltrexone-3-NB590] | 1.06 | 0.90 | 1.01 | 0.93 | 
17 | N#CN=C(NCCCOc1cccc(CN2CCCCC2)c1)NCCNC(=O)CCOCCOCCOCCOCCNC(=O)CCc1ccc2n1[B-](F)(F)[N+]1=C(c3ccc[nH]3)C=CC1=C2 [Aminopotentidine-2-NB590] | 1.01 | 1.02 | 0.98 | 1.05 | 
18 | COc1ccc2c(n1)c(CCNC(C)=O)cn2CCNC(=O)CCc1ccc2n1[B-](F)(F)[N+]1=C(c3ccc[nH]3)C=CC1=C2 [Azamelatonin-1-NB590] |  |  |  |  | NanoBRET Fold Response (TACR1; 0.1μM tracer): 0.98; NanoBRET Fold Response (TACR1; 1μM tracer): 0.89; NanoBRET Fold Response (GRM7; 0.1μM tracer): 1.10; NanoBRET Fold Response (GRM7; 1μM tracer): 1.16
19 | CC(C)N(CC[C@H](c1ccccc1)c1cc(CCNC(=O)c2ccc(CNC(=O)CCc3ccc4n3[B-](F)(F)[N+]3=C(c5ccc[nH]5)C=CC3=C4)cc2)ccc1O)C(C)C [Tolterodine-BZ-NB590] | 0.93 | 1.01 | 0.99 | 1.02 | 
20 | CN1CCN(C2=Nc3cc(Cl)ccc3Nc3ccc(CNC(=O)CCOCCOCCOCCOCCNC(=O)CCc4ccc5n4[B-](F)(F)[N+]4=C(c6ccc[nH]6)C=CC4=C5)cc32)CC1 [Clozapine-b-2-NB590] |  |  |  |  | NanoBRET Fold Response (TACR1; TACR1, 0.1μM tracer): 1.06; NanoBRET Fold Response (TACR1; TACR1, 1μM tracer): 1.08; NanoBRET Fold Response (GRM7; GRM7, 0.1μM tracer): 1.04; NanoBRET Fold Response (GRM7; GRM7, 1μM tracer): 0.93
